Source: publication PMC6941654, “Glucosyltransferase CsUGT78A14 Regulates Flavonols Accumulation and Reactive Oxygen Species Scavenging in Response to Cold Stress in Camellia sinensis” (Frontiers in Plant Science, 2019)

Target: T1, CsUGT78A14-1 (Camellia sinensis, UniProt A0A109P632)
T1 construct: gene UGT78A14; Ala438 allele
Test: UDP-Glo glycosyltransferase assay, steady-state kinetics
Assay type: biochemical
Conditions: co-substrate UDP-glucose (Glc row), donor fixed at 100 μM; acceptor varied 1-500 μM; optimized pH and temperature
Text: UDP-Glo glycosyltransferase assay, steady-state kinetics on CsUGT78A14-1

T1 sequence (A0A109P632 entry or part of it): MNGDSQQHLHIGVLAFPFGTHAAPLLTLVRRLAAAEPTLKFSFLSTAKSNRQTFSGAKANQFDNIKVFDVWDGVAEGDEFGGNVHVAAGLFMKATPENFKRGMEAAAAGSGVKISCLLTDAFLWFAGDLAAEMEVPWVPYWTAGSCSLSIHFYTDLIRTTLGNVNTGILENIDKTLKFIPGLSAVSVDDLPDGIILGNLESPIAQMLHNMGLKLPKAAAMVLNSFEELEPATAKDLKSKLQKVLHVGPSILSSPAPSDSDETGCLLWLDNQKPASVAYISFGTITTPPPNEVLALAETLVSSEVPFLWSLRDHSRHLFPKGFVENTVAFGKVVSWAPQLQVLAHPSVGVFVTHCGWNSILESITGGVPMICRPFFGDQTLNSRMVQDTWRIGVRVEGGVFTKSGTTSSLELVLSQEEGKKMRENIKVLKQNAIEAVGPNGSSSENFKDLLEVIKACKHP

## O=c1c(O)c(-c2ccc(O)cc2)oc2cc(O)cc(O)c12 [kaempferol]
  Km: 27.1 µM
